Measured values reported in US20140243227A1, “CULTURE MEDIA FOR STEM CELLS” (Koninklijke Nederlandse Akademie van Wetenschappen, priority 2011, published 2014).
Where two headings read alike, the source gives them in different places.

Tests used:
human colon crypts = test: Screening of reagents for optimization of human intestinal organoids culture (plating efficiency); type: cell-based
human colon organoids = test: Long-term culture of human colon organoids (culture period, passages); type: cell-based; conditions: nicotinamide 10 mM, WENR + gastrin
[1] = system: human intestinal organoids; test: Differentiation and proliferation of human intestinal organoids; type: cell-based; conditions: human organoids after withdrawal of Wnt
[2] = system: colon and liver organoids; test: GSK3 inhibitor as Wnt replacement in organoid culture media; type: cell-based; conditions: replacement for Wnt
liver organoids = test: Liver organoid expansion with PGE2 or arachidonic acid; type: cell-based, human; conditions: for Number and size of liver organoids versus basal medium alone: PGE2 50 nM or AA 10 ug/ml
[3] = Second screening (WENR + gastrin + Nicotinamide)

Row | Compound | Activity (plating efficiency compared with control after 4 days culture) (human colon crypts; First screening (WENR)) | Activity (plating efficiency compared with control after 4 days culture) (human colon crypts; [3]) | other results
1 | NC(=O)c1cccnc1 [Nicotinamide] | 3+ (3+ = >100% increase) |  | Prolongation of culture period (human colon organoids): essential for prolongation of culture period beyond the initial 7 days; Goblet and enteroendocrine cell differentiation [1]: strongly inhibited this differentiation
2 | Exendin4: GLP1 analog; a 39 amino acid peptide | 0 |  | 
3 | Cc1c[nH]c(-c2cnc(NCCNc3ccc(C#N)cn3)nc2-c2ccc(Cl)cc2Cl)n1 [CHIR99021] |  |  | Wnt agonist activity in the culture media [2]: effective Wnt agonist
4 | O=C(O)/C=C(/CCc1ccc(Cl)cc1)c1ccccc1 [PS48] |  | 0 | 
5 | C[C@H](NC(=O)Cc1cc(F)cc(F)c1)C(=O)N[C@H](C(=O)OC(C)(C)C)c1ccccc1 [DAPT] |  |  | Maximal concentration efficiency (liver organoid cultures; titration, hepatocyte marker expression): 10 µM
6 | C[C@]12CCC(=O)C=C1CC[C@@H]1[C@@H]2[C@@H](O)C[C@@]2(C)[C@H]1CC[C@]2(O)C(=O)CO [Hydrocortison] | 0 |  | 
7 | c1cc(-c2cnn3cc(-c4ccc(OCCN5CCCCC5)cc4)cnc23)ccn1 [Dorsomorphin] |  | 0 | 
8 | FGF2: growth factor (Peprotech) | 0 |  | 
9 | C[C@@H](N)[C@H]1CC[C@H](C(=O)Nc2ccncc2)CC1.Cl.Cl.O [Y27632, R-(+)-trans-4-(1-aminoethyl)-N-(4-Pyridyl)cyclohexanecarboxamide dihydrochloride monohydrate] |  |  | Activity (plating efficiency compared with control after 4 days culture) (human colon crypts): 1+ (key: 0 = no change; 1+ = <50% increase; 2+ = 50-100% increase; 3+ = >100% increase; 1− = 0-50%; 2− = 50-100% decrease; 3− = >100% decrease); Organoid morphology note in Activity column (human colon crypts): cystic
10 | Cholera Toxin |  |  | Activity (plating efficiency compared with control after 4 days culture) (human colon crypts): 1+ (key: 0 = no change; 1+ = <50% increase; 2+ = 50-100% increase; 3+ = >100% increase; 1− = 0-50%; 2− = 50-100% decrease; 3− = >100% decrease)
11 | LIF: growth factor (Millipore) | 0 |  | 
12 | CC(/C=C/C(=O)NO)=C\[C@@H](C)C(=O)c1ccc(N(C)C)cc1 [TSA] |  |  | Result: CYP3AII (liver organoid cultures): −
13 | Cc1ccc(C(=O)Cn2c3c(sc2=N)CCCC3)cc1 [Pifithrin-α] |  | 0 | 
14 | Nc1ncn([C@@H]2O[C@H](CO)[C@@H](O)[C@H]2O)c(=O)n1 [5 Azacytidin] |  | 1− (1− = 0-50%) | 
15 | O.O.O.O=C(O)c1ncccc1O.O=C(O)c1ncccc1O.[O]=[V] [VO-OHpic trihydrate] |  | 3− (3− = >100% decrease) | 
16 | CCCCC/C=C\C/C=C\C/C=C\C/C=C\CCCC(=O)O [AA, Arachidonic acid] |  |  | Number and size of liver organoids versus basal medium alone (liver organoids): greater number of larger organoids
17 | Oc1c2ccccc2c2c3c(cccc13)N=N2 [SP600125] |  | 0 | 
18 | Cc1nc2sccn2c(=O)c1CCN1CCC(=C(c2ccccc2)c2ccc(F)cc2)CC1 [R 59022] |  |  | Result: CYP3AII (liver organoid cultures): +
19 | Oc1ccc(-c2nc(-c3ccc(F)cc3)c(-c3ccncc3)[nH]2)cc1 [SB-202190, 4-[4-(4-Fluorophenyl)-5-(4-pyridinyl)-1H-imidazol-2-yl]phenol] |  |  | Goblet and enteroendocrine cell differentiation [1]: strongly inhibited this differentiation
20 | COc1cccc(-c2cc(=O)c3ccccc3o2)c1N [PD98059] |  | 1− (1− = 0-50%) | 
21 | COc1cc2nc(N3CCCN(C)CC3)nc(NC3CCN(Cc4ccccc4)CC3)c2cc1OC [BIX01294] |  | 1− (1− = 0-50%) | 
22 | CCCCC[C@H](O)/C=C/[C@H]1[C@H](O)CC(=O)[C@@H]1C/C=C\CCCC(=O)O [PGE2, prostaglandin E2] | 1+ (1+ = <50% increase) |  | Culturing time without growth reduction (liver organoids; 5 fold expansion per week, 5 weeks without PGE2): at least 8 weeks; Number and size of liver organoids versus basal medium alone (liver organoids): greater number of larger organoids
23 | O=C1O[C@H]([C@@H](O)CO)C(O)=C1O [L-Ascorbic acid] | 0 |  | 
